Measurements published in patent US11643385B2, “Polymorphic forms of RAD1901-2HCl” (RADIUS PHARMACEUTICALS, INC., priority 2018, dated 2023).
“Also recorded” adds a separate entry of the source. Marks after values point to notes of the source that are not given here.

Key:
[1] = Solubility assessment and polymorph screen on Sample 1 (Form 1) of RAD1901-2HCl in 24 solvent systems; format: physicochemical; settings: for Solubility observation at 10 vol.: 25 mg Sample 1, 10 vol. solvent (solvent per sample ID), stirred 25° C., shaken 50° C.; for Solubility observation at 20 vol.: 20 vol. solvent (solvent per sample ID); for Solubility observation at 40 vol.: 40 vol. solvent (solvent per sample ID); for Solubility observation at 60 vol.: 60 vol. solvent (solvent per sample ID); for XRPD of recovered solid (form): solid recovered after maturation, cooling or evaporation; for Observation after Cooled to 5° C.: clear solutions cooled 50° C. to 5° C. at 0.1° C./min; for Observation after Evaporation: slow evaporation at ambient conditions
Procedure: Solubility assessment was carried out on the Sample 1 of RAD1901-2HCl (majorly Form 1 shown by XRPD) in 24 solvent systems in HPLC vials (sample IDs: A1 to A24). RAD1901-2HCl (25 mg) was treated with increasing volumes of solvent until the material fully dissolved or until a maximum of 60 vol had been used (Table 13).
After each addition of solvent, the system was stirred for 5 to 10 minutes at 25° C., then shaken at 50° C. for 5 to 10 minutes, and observations made. Samples were allowed to stand at room temperature for 5 min before the addition of a new aliquot of solvent. After the assessment was completed, the suspensions obtained were matured (maturation) and the clear solutions were cooled (cooling) and slowly evaporated (evaporation) as described below. All solids recovered from maturation, cooling and evaporation experiments were analyzed by high resolution XRPD.
The suspensions obtained during the solubility assessment were matured by shaken in a maturation chamber between 50° C. and RT (8 hr per cycle) for up to 5 days. Then the mixture was allowed to stand at room temperature for 10 minutes. The resulting solids were filtered and air dried and analyzed by XRPD. The clear solutions obtained during maturation were evaporated in ambient conditions and the resulting residues were analyzed by XRPD.
The clear solutions obtained during the course of the solubility assessment were cooled on a Polar Bear device from 50° C. to 5° C. at 0.1° C./min. Solids obtained upon cooling were recovered from the vials, air dried and analyzed by XRPD. If no solid was obtained, the solutions were evaporated slowly through a needle inserted into the septum cap of the vial until a solid appeared at ambient conditions and the resulting solids were filtered, air dried and analyzed by XRPD.

[2] = Solubility assessment and polymorph screen on amorphous RAD1901-2HCl; format: physicochemical; settings: for XRPD post 25° C. (form): after maturation at 25° C.; for XRPD post 50° C./RT (form): after maturation at 50° C./RT; for Solubility observation at 10 vol.: amorphous RAD1901-2HCl, 10 vol. solvent (solvent per sample ID); for Observation After maturation at 50° C.: maturation at 50° C./RT
Procedure: In a scale-up preparation of amorphous RAD1901-2HCl, RAD1901-2HCl (600 mg) was dissolved in water (20 vol., 12 mL) and filtered to remove any remaining solid particles. The solution was then aliquoted into 24 HPLC vials, frozen in a dry ice/acetone bath and the solvent removed by lyophilisation. Solids produced by lyophilization were used directly in solubility assessment and polymorph screens in Example 4.
Amorphous RAD1901-2HCl prepared as described in Example 3B was used directly in solubility assessment and polymorph screens (Table 15). XRPD patterns were further obtained for amorphous RAD1901-2HCl prepared using other solvents.
In the polymorph screen of the amorphous RAD1901-2HCl prepared as described in Example 3B, an aliquot of each sample was examined for its morphology under the microscope, both after maturing at 25° C., and after maturing at 50° C./RT. […] In some instances, the sample appeared to be a mixture of various polymorphic forms, e.g. Form 2 and Form 3 (FIGS. 18B-18C), similar to the mixture of Forms 2 and 3 in Sample 2 having an equilibrium between the two solid forms, depending on the prevailing RH.

SMILES | Solubility observation at 10 vol. [1] | Solubility observation at 20 vol. [1] | Solubility observation at 40 vol. [1] | Solubility observation at 60 vol. [1] | XRPD of recovered solid (form) [1] | Observation after Cooled to 5° C. [1] | XRPD post 25° C. (form) [2] | XRPD post 50° C./RT (form) [2] | Solubility observation at 10 vol. [2] | Observation After maturation at 50° C. [2] | Observation After maturation at 25° C. ([2]; maturation at 25° C.) | Observation after Evaporation [1] | Observation After 50/RT maturation ([1]; 50° C./RT cycles (8 hr per cycle) up to 5 days)
CCNCCc1ccc(CN(CC)c2cc(OC)ccc2[C@@H]2CCc3cc(O)ccc3C2)cc1.Cl.Cl [Form A8] | X (X = suspension) | X (X = suspension) | X (X = suspension) | X (X = suspension) | Form 1 |  |  |  |  |  |  |  | 
CCNCCc1ccc(CN(CC)c2cc(OC)ccc2[C@@H]2CCc3cc(O)ccc3C2)cc1.Cl.Cl [Form A22] | +/− (+/− = nearly dissolved) | S (S = solution) |  |  | Form 3* | Some |  |  |  |  |  |  | 
CCNCCc1ccc(CN(CC)c2cc(OC)ccc2[C@@H]2CCc3cc(O)ccc3C2)cc1.Cl.Cl [Form B12.] |  |  |  |  |  |  | Form 3 | Form 3 | S (S = solution) | Lath |  |  | 
CCNCCc1ccc(CN(CC)c2cc(OC)ccc2[C@@H]2CCc3cc(O)ccc3C2)cc1.Cl.Cl [Form B24.] |  |  |  |  |  |  | Form 3 | Form 3 | X (X = suspension) | Fine |  |  | 
CCNCCc1ccc(CN(CC)c2cc(OC)ccc2[C@@H]2CCc3cc(O)ccc3C2)cc1.Cl.Cl [Form B19.] |  |  |  |  |  |  | Form 3 |  | X (X = suspension) | Green | Crystal |  | 
CCNCCc1ccc(CN(CC)c2cc(OC)ccc2[C@@H]2CCc3cc(O)ccc3C2)cc1.Cl.Cl [Form A1] | X (X = suspension) | X (X = suspension) | X (X = suspension) | X (X = suspension) | Form 1 |  |  |  |  |  |  |  | 
CCNCCc1ccc(CN(CC)c2cc(OC)ccc2[C@@H]2CCc3cc(O)ccc3C2)cc1.Cl.Cl [Form A14] | X (X = suspension) | X (X = suspension) | X (X = suspension) | X (X = suspension) | Form 1 |  |  |  |  |  |  |  | 
CCNCCc1ccc(CN(CC)c2cc(OC)ccc2[C@@H]2CCc3cc(O)ccc3C2)cc1.Cl.Cl [Form A23] | X (X = suspension) | X (X = suspension) | +/− (+/− = nearly dissolved) | S (S = solution) | Form 3 | S |  |  |  |  |  | Solids, | 
CCNCCc1ccc(CN(CC)c2cc(OC)ccc2[C@@H]2CCc3cc(O)ccc3C2)cc1.Cl.Cl [Form A13] | X (X = suspension) | X (X = suspension) | X (X = suspension) | X (X = suspension) | Form 1 |  |  |  |  |  |  |  | 
CCNCCc1ccc(CN(CC)c2cc(OC)ccc2[C@@H]2CCc3cc(O)ccc3C2)cc1.Cl.Cl [Form A17] | X (X = suspension) | X (X = suspension) | X (X = suspension) | X (X = suspension) | Form 1 |  |  |  |  |  |  |  | 
CCNCCc1ccc(CN(CC)c2cc(OC)ccc2[C@@H]2CCc3cc(O)ccc3C2)cc1.Cl.Cl [Form A4] | X (X = suspension) | X (X = suspension) | X (X = suspension) | X (X = suspension) | Form 1 |  |  |  |  |  |  |  | 
CCNCCc1ccc(CN(CC)c2cc(OC)ccc2[C@@H]2CCc3cc(O)ccc3C2)cc1.Cl.Cl [Form A19] | X (X = suspension) | X (X = suspension) | X (X = suspension) | X (X = suspension) | Form 1 |  |  |  |  |  |  |  | 
CCNCCc1ccc(CN(CC)c2cc(OC)ccc2[C@@H]2CCc3cc(O)ccc3C2)cc1.Cl.Cl [Form A15] | X (X = suspension) | X (X = suspension) | X (X = suspension) | X (X = suspension) | Form 1 |  |  |  |  |  |  |  | 
CCNCCc1ccc(CN(CC)c2cc(OC)ccc2[C@@H]2CCc3cc(O)ccc3C2)cc1.Cl.Cl [Form A21] |  |  |  |  |  |  |  |  |  |  |  |  | S
CCNCCc1ccc(CN(CC)c2cc(OC)ccc2[C@@H]2CCc3cc(O)ccc3C2)cc1.Cl.Cl [Form A12] | +/− (+/− = nearly dissolved) | S (S = solution) |  |  | Form 3 | S |  |  |  |  |  | Solid | 
CCNCCc1ccc(CN(CC)c2cc(OC)ccc2[C@@H]2CCc3cc(O)ccc3C2)cc1.Cl.Cl [Form A2] | X (X = suspension) | X (X = suspension) | X (X = suspension) | X (X = suspension) | Form 1 |  |  |  |  |  |  |  | 
CCNCCc1ccc(CN(CC)c2cc(OC)ccc2[C@@H]2CCc3cc(O)ccc3C2)cc1.Cl.Cl [Form A6] | X (X = suspension) | X (X = suspension) | X (X = suspension) | X (X = suspension) | Form 3* |  |  |  |  |  |  |  | 
CCNCCc1ccc(CN(CC)c2cc(OC)ccc2[C@@H]2CCc3cc(O)ccc3C2)cc1.Cl.Cl [Form A20] | +/− (+/− = nearly dissolved) | S (S = solution) |  |  | Pattern 3; also recorded: Form 3 | Platelet |  |  |  |  |  |  | 
CCNCCc1ccc(CN(CC)c2cc(OC)ccc2[C@@H]2CCc3cc(O)ccc3C2)cc1.Cl.Cl [Form A10] | X (X = suspension) | X (X = suspension) | X (X = suspension) | X (X = suspension) | Form 1 |  |  |  |  |  |  |  | 
CCNCCc1ccc(CN(CC)c2cc(OC)ccc2[C@@H]2CCc3cc(O)ccc3C2)cc1.Cl.Cl [Form A5] | X (X = suspension) | X (X = suspension) | X (X = suspension) | X (X = suspension) | Form 1 |  |  |  |  |  |  |  | 
CCNCCc1ccc(CN(CC)c2cc(OC)ccc2[C@@H]2CCc3cc(O)ccc3C2)cc1.Cl.Cl [Form A24] | X (X = suspension) | X (X = suspension) | +/− (+/− = nearly dissolved) | S (S = solution) | Form 3 | S |  |  |  |  |  | Solids | 
CCNCCc1ccc(CN(CC)c2cc(OC)ccc2[C@@H]2CCc3cc(O)ccc3C2)cc1.Cl.Cl [Form A11] | S (S = solution) |  |  |  |  | S |  |  |  |  |  | S | 
CCNCCc1ccc(CN(CC)c2cc(OC)ccc2[C@@H]2CCc3cc(O)ccc3C2)cc1.Cl.Cl [Form A7] | X (X = suspension) | X (X = suspension) | X (X = suspension) | X (X = suspension) | Form 1* |  |  |  |  |  |  |  | 
CCNCCc1ccc(CN(CC)c2cc(OC)ccc2[C@@H]2CCc3cc(O)ccc3C2)cc1.Cl.Cl [Form A3] | X (X = suspension) | X (X = suspension) | X (X = suspension) | X (X = suspension) | Form 1 |  |  |  |  |  |  |  | 
